Assay results published in article PMC12441861, “Next-Generation Lipid Prodrugs Orally Deliver Tenofovir via Enhanced Chylomicron Incorporation” (ACS Pharmacology & Translational Science, 2025).
pIC50: −log10 of the molar value.

Assays:
HIV = conditions: HEK293T cells; ref previous study (Pribut et al. 2021); read-out: IC50 (antiviral activity, previous study); cited from earlier work
[1] = Release of parent TFV in mouse tissues after oral prodrug (fed state); conditions: 10 mg/kg oral prodrug
[2] = Mouse oral PK and tissue distribution, fasted state; format: in vivo; conditions: for Tmax: male, C57BL/6, mouse, lung, po, 10 mg/kg, tissue not stated; for lung AUC, fasted: overnight fast, final time point 24 h
Experimental: It is well established that oral absorption and subsequent tissue distribution of lipophilic drugs can be affected by an animal’s fed state. − Food intake serves as a stimulus for CM production in enterocytes, and therefore, variable fed states contribute to differences in prodrug absorption into the lymphatics. […] To evaluate the impact of fasting on drug absorption and distribution, we modified our protocol to include an overnight fast. This mouse PK experiment was performed as above, with the final time point extended to 24 h (instead of 18) for logistical considerations.
In accordance with the American Chemical Society Guidelines to Publication of Chemical Research, we affirm the use of standard ethical practices when housing and handling research animals, as ensured by the Emory University’s Institutional Animal Care and Use Committee (IACUC) and the Division of Animal Resources (DAR) through a rigorous protocol review, amendment, and approval process. During in vivo experiments, mice were housed in compliance with Emory University’s Division of Animal Resources (DAR) guidelines. For fasting experiments, food was removed the evening before the experiment. Mice had access to water throughout the fasting period. Food was reintroduced 4 h after oral dosing per industry standard protocols. Animals were monitored daily for signs of pain, distress, or adverse events. All procedures were conducted following protocols approved by the Institutional Animal Care and Use Committee (IACUC).
The compounds TXL, 15a, 15b, 21a, 21b, and a vehicle control were prepared at a concentration of 1 mg/mL in a 90:10 solution of olive oil (Sigma-Aldrich, cat. No. O1514) and 190-proof ethanol. The dosing for each mouse was calculated based on individual body weights to achieve a final dose of 10 mg/kg. For example, a 20 g mouse would receive 200 μL of the 1 mg/mL drug formulation, while a 25 g mouse would receive 250 μL.
In accordance with the American Chemical Society Guidelines to Publication of Chemical Research, we affirm the use of standard ethical practices when housing and handling research animals, as ensured by the Emory University’s Institutional Animal Care and Use Committee (IACUC) and the Division of Animal Resources (DAR) through a rigorous protocol review, amendment, and approval process. A total of 220 C57BL6/J male mice (aged 11–12 weeks, weight, 22–30 g) were used for these studies. Each mouse was weighed, recorded, and ear-clipped for identification. The dosing for each mouse was calculated based on individual body weights to achieve a final dose of 10 mg/kg. Animals were anesthetized using isoflurane gas before receiving a single dose of drug prepared as described above using a 22-gauge gavage needle attached to a calibrated syringe.
Time points for tissue collection were 1, 2, 4, 8, and 18 h for unfasted mice, and 1, 2, 4, 8, and 24 h for fasted mice. At each time point, the mice (n = 4 per compound per time point) were anesthetized using isoflurane and subjected to cardiac puncture for blood collection into EDTA-coated tubes. The collected blood samples were immediately placed on ice before the mice were humanely euthanized via cervical dislocation. Brain, liver, lungs, and kidneys were harvested, rinsed in PBS, and placed in prelabeled tubes. Tissues were flash-frozen in liquid nitrogen then transferred to dry ice for storage.
Tissues were weighed (∼50 mg) into homogenization tubes and ACN containing a 10 μM ITSD was added to achieve a final solvent-to-tissue ratio of 4:1. Homogenization beads were added, and the tissues were processed (Biotage Lysera, part no. 19–060) using two 20 s pulses with a 10 s interval period. Homogenate was centrifuged at maximum speed for 1 h, supernatant collected and analyzed via LC-MS using the method described previously. For plasma samples, a 50 μL aliquot was added 200 μL of ACN containing ITSD. […]

Caco-2 cells = assay: Control: release of membrane-associated prodrug into media after wash; format: in vitro ADME, human; conditions: 10 μM, 15 min at 37 °C, media at 0, 5 and 15 min postwash
Experimental: After characterizing the impact of membrane dynamics on the packaging of ω-unfunctionalized prodrugs into CMs, we proceeded to screen the ω-CF3-functionalized BOG lipid prodrugs in our CM assay. All collections were done at the 20 h time point to allow full diffusion of prodrug out of the membrane. […] However, CM concentration strongly correlated with c Log D values (R ^2 = 0.89, Figure c), consistent with trends observed for ω-unfunctionalized prodrugs and highlighting the role of lipophilicity on CM incorporation. […] This is further supported by the 2.4-fold increase in CM concentration observed for 15a compared to TXL, where the only difference is the inclusion of the terminal CF3 group. […] Therefore, as an important control experiment, Caco-2 cells were incubated with 10 μM of TXL or compound 21a (n = 6 per group) in the presence of the lipid mixture for 15 min at 37 °C. After incubation, the cells were washed three times with PBS, and fresh drug-free growth media was added. Aliquots of the media were collected at 0, 5, and 15 min postwash. Samples were analyzed by LC-MS/MS for the presence of TXL and 21a.

C[C@H](Cn1cnc2c(N)ncnc21)OCP(=O)(O)OCCCOCCCCCCCCCCCCCCCC(F)(F)F [15a, Ammonium[(1R)-2-(6-aminopurin-9-yl)-1-methyl-ethoxy]methyl-[3-(16,16,16-trifluorohexadecoxy)propoxy]phosphinate]
pIC50 (HIV): 7.30

CCCCCCCCCCCCCCCCOCCCOP(=O)(O)CO[C@H](C)Cn1cnc2c(N)ncnc21 [TXL, hexadecyloxypropyl (HDP)-TFV, reference compound]
TFV levels (Cmax and AUC) in plasma and liver relative to 21a-treated mice [1]: higher levels of TFV | Fasted:Fed PK Ratio, liver AUC ([2]; 10 mg/kg oral): 0.64 | Fasted:Fed PK Ratio, liver Cmax ([2]; 10 mg/kg oral): 1.5 | Fasted:Fed PK Ratio, lung AUC ([2]; 10 mg/kg oral): 2.1 | Fasted:Fed PK Ratio, lung Cmax ([2]; 10 mg/kg oral): 2.2 | Fasted:Fed PK Ratio, plasma AUC ([2]; 10 mg/kg oral): 1.9 | Fasted:Fed PK Ratio, plasma Cmax ([2]; 10 mg/kg oral): 1.4 | increase in lung AUC in fasted versus fed mice ([2]; 10 mg/kg oral): 2 fold | Tmax [2]: 4 h | lung AUC, fasted ([2]; 10 mg/kg oral): 15,600 h·ng/g | prodrug concentration in media postwash (Caco-2 cells): below the limit of detection

C[C@H](Cn1cnc2c(N)ncnc21)OCP(=O)(O)OC[C@H](COCCCCCCCCCCCCCCCC(F)(F)F)OCc1ccccc1 [21a, Ammonium[(1R)-2-(6-Aminopurin-9-yl)-1-methyl-ethoxy]methyl-[(2S)-2-benzyloxy-3-(16,16,16-trifluorohexadecoxy)propoxy]phosphinate]
Fasted:Fed PK Ratio, liver AUC ([2]; 10 mg/kg oral): 0.76 | Fasted:Fed PK Ratio, liver Cmax ([2]; 10 mg/kg oral): 1.6 | Fasted:Fed PK Ratio, lung AUC ([2]; 10 mg/kg oral): 0.83 | Fasted:Fed PK Ratio, lung Cmax ([2]; 10 mg/kg oral): 0.69 | Fasted:Fed PK Ratio, plasma AUC ([2]; 10 mg/kg oral): 2.4 | Fasted:Fed PK Ratio, plasma Cmax ([2]; 10 mg/kg oral): 0.72 | decrease in lung concentration under fasted conditions ([2]; 10 mg/kg oral): 17% | Tmax [2]: 1 h | lung AUC, fasted ([2]; 10 mg/kg oral): 59,900 h·ng/g | prodrug concentration in media postwash (Caco-2 cells): below the limit of detection
